In PMC12892976, “Alkylation-based optimization of antifungal FPPS inhibitors yields a potent, broad-spectrum lipophilic zoledronate derivative” (mBio, 2025):
In brackets after ≈: the same amount, converted by molar mass.

Experiments:
Cryptococcus gattii [1] = experiment: MIC broth microdilution (CLSI); type: cell-based; details: Cryptococcus gattii PNG27
Description: (§2) Antifungal susceptibility was determined by broth microdilution according to the CLSI guidelines described in M27-Ed4 ([16]).

Cryptococcus tetragattii = experiment: MIC broth microdilution (CLSI); type: cell-based; details: Cryptococcus tetragattii WM779
Description: as §2

Fusarium oxysporum [2] = experiment: MIC broth microdilution (CLSI); type: cell-based; details: Fusarium oxysporum 07-200-3012
Description: as §2

Scedosporium apiospermum = experiment: MIC broth microdilution (CLSI); type: cell-based; details: Scedosporium apiospermum 04-16-022-2268
Description: as §2

Candida tropicalis [3] = experiment: MIC broth microdilution (CLSI); type: cell-based; details: Candida tropicalis M230640
Description: as §2

Candida dubliniensis = experiment: MIC broth microdilution (CLSI); type: cell-based; details: Candida dubliniensis M230642
Description: as §2

Aspergillus terreus = experiment: MIC broth microdilution (CLSI); type: cell-based; details: Aspergillus terreus 75-16-089-2500
Description: as §2

Aspergillus felis = experiment: MIC broth microdilution (CLSI); type: cell-based; details: Aspergillus felis IHE87256683D6
Description: as §2

Epidermophyton floccosum = experiment: MIC broth microdilution (CLSI); type: cell-based; details: Epidermophyon floccosum R-113
Description: as §2

Nannizzia gypsea [4] = experiment: MIC broth microdilution (CLSI); type: cell-based; details: Nannizzia gypsea R-131
Description: as §2

Mucor circinelloides = experiment: checkerboard drug interaction (FICI, MICc); type: cell-based;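 further: simplified diagonal checkerboard screen pairing antifungals with FPPS inhibitors, FICI calculated under the Loewe additivity model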
Description: (§3) Drug interactions between antifungals and FPPS inhibitors were investigated using a simplified checkerboard diagonal screening method ([45]). […] FICIs were determined according to the Loewe additivity model ([17]).

Cryptococcus gattii [5] = experiment: checkerboard drug interaction (FICI, MICc); type: cell-based;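 further: simplified diagonal checkerboard screen pairing antifungals with FPPS inhibitors, FICI computed under the Loewe additivity model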
Description: as §3

Fusarium oxysporum [6] = experiment: checkerboard drug interaction (FICI, MICc); type: cell-based;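 further: simplified diagonal checkerboard screen pairing antifungals with FPPS inhibitors, FICI calculated under the Loewe additivity model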
Description: as §3

Fusarium solani = experiment: checkerboard drug interaction (FICI, MICc); type: cell-based;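 further: simplified diagonal checkerboard screen pairing antifungals with FPPS inhibitors, FICI derived under the Loewe additivity model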
Description: as §3

Pichia kudriavzevii = experiment: checkerboard drug interaction (FICI, MICc); type: cell-based;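 further: antifungal plus FPPS inhibitor interactions tested in a simplified diagonal checkerboard screen, with FICI calculated under the Loewe additivity model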
Description: as §3

Candida parapsilosis = experiment: checkerboard drug interaction (FICI, MICc); type: cell-based;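 further: simplified diagonal checkerboard screen pairing antifungals with FPPS inhibitors, with FICI computed under the Loewe additivity model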
Description: as §3

Candida tropicalis [7] = experiment: checkerboard drug interaction (FICI, MICc); type: cell-based;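 further: simplified diagonal checkerboard screen of antifungal plus FPPS inhibitor combinations, with FICI computed by the Loewe additivity model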
Description: as §3

Microsporum canis [8] = experiment: checkerboard drug interaction (FICI, MICc); type: cell-based;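 further: simplified diagonal checkerboard screen pairing antifungals with FPPS inhibitors, FICI calculated under the Loewe additivity model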
Description: as §3

Nannizzia nana = experiment: checkerboard drug interaction (FICI, MICc); type: cell-based;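 further: simplified diagonal checkerboard screen pairing antifungals with FPPS inhibitors, FICI calculated under the Loewe additivity model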
Description: as §3

Trichophyton tonsurans = experiment: checkerboard drug interaction (FICI, MICc); type: cell-based;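 further: simplified diagonal checkerboard screen combining antifungals with FPPS inhibitors, with FICI calculated under the Loewe additivity model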
Description: as §3

Trichophyton soudanense = experiment: checkerboard drug interaction (FICI, MICc); type: cell-based;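 further: simplified diagonal checkerboard screen pairing antifungals with FPPS inhibitors, FICI computed under the Loewe additivity model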
Description: as §3

[9] = system: Saccharomyces cerevisiae biofilms; experiment: biofilm XTT reduction assay (SIC80, SFICI); type: cell-based; details: for SICc: Saccharomyces cerevisiae; for SIC80: agent alone, Saccharomyces cerevisiae S288c
Description: (§4) Biofilms of Cryptococcus were seeded in DMEM, and all other species were seeded in RPMI-1640.

[10] = system: Aspergillus flavus biofilms; experiment: biofilm XTT reduction assay (SIC80, SFICI); type: cell-based; details: for SICc: Aspergillus flavus; for SIC80: agent alone, Aspergillus flavus ATCC 204304
Description: (§1) […]. […] […].

[11] = system: Aspergillus fumigatus biofilms; experiment: biofilm XTT reduction assay (SIC80, SFICI); type: cell-based; details: for SICc: Aspergillus fumigatus; for SIC80: agent alone, Aspergillus fumigatus ATCC 204305
Description: as §1

[12] = system: Candida glabrata biofilms; experiment: biofilm XTT reduction assay (SIC80, SFICI); type: cell-based; details: for SICc: Candida glabrata; for SIC80: agent alone, Candida glabrata CBS138
Description: as §1

[13] = system: Trichophyton rubrum biofilms; experiment: biofilm XTT reduction assay (SIC80, SFICI); type: cell-based; details: biofilm; for SICc: Trichophyton rubrum; for SIC80: agent alone, Trichophyton rubrum 213
Description: as §4

Microsporum canis [14] = experiment: MIC broth microdilution (CLSI); details: Microsporum canis R-232
Description: as §2

Nannizzia gypsea [15] = experiment: checkerboard drug interaction (FICI, MICc);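 further: simplified diagonal checkerboard screen pairing antifungals with FPPS inhibitors, FICI derived using the Loewe additivity model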
Description: as §3

[16] = system: Candida albicans biofilms; experiment: biofilm XTT reduction assay (SIC80, SFICI); details: for SICc: Candida albicans; for SIC80: agent alone, Candida albicans SC5314
Description: as §4

[17] = system: Cryptococcus neoformans biofilms; experiment: biofilm XTT reduction assay (SIC80, SFICI); details: for SICc: Cryptococcus neoformans; for SIC80: agent alone, Cryptococcus neoformans H99
Description: as §4

[18] = system: Cryptococcus deuterogattii biofilms; experiment: biofilm XTT reduction assay (SIC80, SFICI); details: for SICc: Cryptococcus deuterogattii; for SIC80: agent alone, Cryptococcus deuterogattii R265
Description: as §4

## CCC(C)n1ncn(-c2ccc(N3CCN(c4ccc(OCC5COC(Cn6cncn6)(c6ccc(Cl)cc6Cl)O5)cc4)CC3)cc2)c1=O (stereo not drawn) [ITR, itraconazole]
Cryptococcus gattii [1]
  MIC / MEC: 0.25 µg/mL (≈ 0.354 µM)
Cryptococcus tetragattii
  MIC / MEC: 0.5 µg/mL (≈ 0.709 µM)
Fusarium oxysporum [2]
  MIC / MEC: 4 µg/mL (≈ 5.67 µM)
Scedosporium apiospermum
  MIC / MEC: 8 µg/mL (≈ 11.3 µM)
Candida tropicalis [3]
  MIC / MEC: 0.25 µg/mL (≈ 0.354 µM)
Candida dubliniensis
  MIC / MEC: 0.13 µg/mL (≈ 0.184 µM)
Aspergillus terreus
  MIC / MEC: 0.5 µg/mL (≈ 0.709 µM)
Aspergillus felis
  MIC / MEC: 2 µg/mL (≈ 2.83 µM)
Epidermophyton floccosum
  MIC / MEC: 1 µg/mL (≈ 1.42 µM)
Nannizzia gypsea [4]
  MIC / MEC: 2 µg/mL (≈ 2.83 µM)
Mucor circinelloides; in combination with 10-ZOL
  antifungal MICc: 0.25
Mucor circinelloides; in combination with ZOL
  antifungal MICc: 0.06
Cryptococcus gattii [5]; in combination with 10-ZOL
  antifungal MICc: 0.125
Cryptococcus gattii [5]; in combination with ZOL
  antifungal MICc: 0.125
Fusarium oxysporum [6]; in combination with 10-ZOL
  antifungal MICc: 1
Fusarium oxysporum [6]; in combination with ZOL
  antifungal MICc: 1
Fusarium solani; in combination with 10-ZOL
  antifungal MICc: 1
Fusarium solani; in combination with ZOL
  antifungal MICc: 0.5
Pichia kudriavzevii; in combination with 10-ZOL
  antifungal MICc: 1
Pichia kudriavzevii; in combination with ZOL
  antifungal MICc: 0.25
Candida parapsilosis; in combination with 10-ZOL
  antifungal MICc: 0.125
Candida parapsilosis; in combination with ZOL
  antifungal MICc: 0.062
Candida tropicalis [7]; in combination with 10-ZOL
  antifungal MICc: 0.125
Candida tropicalis [7]; in combination with ZOL
  antifungal MICc: 0.062
Microsporum canis [8]; in combination with 10-ZOL
  antifungal MICc: 0.063
Microsporum canis [8]; in combination with ZOL
  antifungal MICc: 0.25
Nannizzia nana; in combination with 10-ZOL
  antifungal MICc: 0.25
Nannizzia nana; in combination with ZOL
  antifungal MICc: 0.13
Trichophyton tonsurans; in combination with 10-ZOL
  antifungal MICc: 0.25
Trichophyton tonsurans; in combination with ZOL
  antifungal MICc: 0.25
Trichophyton soudanense; in combination with 10-ZOL
  antifungal MICc: 0.25
Trichophyton soudanense; in combination with ZOL
  antifungal MICc: 0.25
[9]; ITR:10-ZOL combination
  SICc: 16 µg/mL
[9]
  SIC80: 32 µg/mL
[10]; ITR:10-ZOL combination
  SICc: 64 µg/mL
[10]
  SIC80: 128 µg/mL
[11]; ITR:10-ZOL combination
  SICc: 128 µg/mL
[11]
  SIC80: 256 µg/mL
[12]; ITR:10-ZOL combination
  SICc: 128 µg/mL
[12]
  SIC80: 256 µg/mL
[13]; ITR:10-ZOL combination
  SICc: 64 µg/mL
[13]
  SIC80: >256 µg/mL
Microsporum canis [14]
  MIC / MEC: 0.5 µg/mL (≈ 0.709 µM)
Nannizzia gypsea [15]; in combination with 10-ZOL
  antifungal MICc: 2
Nannizzia gypsea [15]; in combination with ZOL
  antifungal MICc: 0.5
[16]; ITR:10-ZOL combination
  SICc: 128 µg/mL
[16]
  SIC80: 256 µg/mL
[17]; ITR:10-ZOL combination
  SICc: 32 µg/mL
[17]
  SIC80: 64 µg/mL
[18]; ITR:10-ZOL combination
  SICc: 64 µg/mL
[18]
  SIC80: 128 µg/mL

## CC(=O)N1CCN(c2ccc(OCC3COC(Cn4ccnc4)(c4ccc(Cl)cc4Cl)O3)cc2)CC1 (stereo not drawn) [KET, ketoconazole]
Cryptococcus gattii [1]
  MIC / MEC: 0.5 µg/mL (≈ 0.941 µM)
Cryptococcus tetragattii
  MIC / MEC: 0.5 µg/mL (≈ 0.941 µM)
Fusarium oxysporum [2]
  MIC / MEC: 16 µg/mL (≈ 30.1 µM)
Scedosporium apiospermum
  MIC / MEC: 8 µg/mL (≈ 15.1 µM)
Candida tropicalis [3]
  MIC / MEC: 8 µg/mL (≈ 15.1 µM)
Candida dubliniensis
  MIC / MEC: 0.02 µg/mL (≈ 0.0376 µM)
Aspergillus terreus
  MIC / MEC: 2 µg/mL (≈ 3.76 µM)
Aspergillus felis
  MIC / MEC: 16 µg/mL (≈ 30.1 µM)
Epidermophyton floccosum
  MIC / MEC: 2 µg/mL (≈ 3.76 µM)
Nannizzia gypsea [4]
  MIC / MEC: 16 µg/mL (≈ 30.1 µM)
Mucor circinelloides; in combination with 10-ZOL
  antifungal MICc: 4
Mucor circinelloides; in combination with ZOL
  antifungal MICc: 8
Cryptococcus gattii [5]; in combination with 10-ZOL
  antifungal MICc: 0.125
Cryptococcus gattii [5]; in combination with ZOL
  antifungal MICc: 0.5
Fusarium oxysporum [6]; in combination with 10-ZOL
  antifungal MICc: 16
Fusarium oxysporum [6]; in combination with ZOL
  antifungal MICc: 4
Fusarium solani; in combination with 10-ZOL
  antifungal MICc: 4
Fusarium solani; in combination with ZOL
  antifungal MICc: 4
Pichia kudriavzevii; in combination with 10-ZOL
  antifungal MICc: 0.25
Pichia kudriavzevii; in combination with ZOL
  antifungal MICc: 0.06
Candida parapsilosis; in combination with 10-ZOL
  antifungal MICc: 0.015
Candida parapsilosis; in combination with ZOL
  antifungal MICc: 0.03
Candida tropicalis [7]; in combination with 10-ZOL
  antifungal MICc: 4
Candida tropicalis [7]; in combination with ZOL
  antifungal MICc: 0.5
Microsporum canis [8]; in combination with 10-ZOL
  antifungal MICc: 1
Microsporum canis [8]; in combination with ZOL
  antifungal MICc: 4
Nannizzia nana; in combination with 10-ZOL
  antifungal MICc: 0.5
Nannizzia nana; in combination with ZOL
  antifungal MICc: 0.13
Trichophyton tonsurans; in combination with 10-ZOL
  antifungal MICc: 0.25
Trichophyton tonsurans; in combination with ZOL
  antifungal MICc: 0.5
Trichophyton soudanense; in combination with 10-ZOL
  antifungal MICc: 0.5
Trichophyton soudanense; in combination with ZOL
  antifungal MICc: 1
[9]; KET:10-ZOL combination
  SICc: 16 µg/mL
[9]
  SIC80: 32 µg/mL
[10]; KET:10-ZOL combination
  SICc: 64 µg/mL
[10]
  SIC80: 128 µg/mL
[11]; KET:10-ZOL combination
  SICc: 64 µg/mL
[11]
  SIC80: 256 µg/mL
[12]; KET:10-ZOL combination
  SICc: 64 µg/mL
[12]
  SIC80: 256 µg/mL
[13]; KET:10-ZOL combination
  SICc: 64 µg/mL
[13]
  SIC80: 256 µg/mL
Microsporum canis [14]
  MIC / MEC: 16 µg/mL (≈ 30.1 µM)
Nannizzia gypsea [15]; in combination with 10-ZOL
  antifungal MICc: 2
Nannizzia gypsea [15]; in combination with ZOL
  antifungal MICc: 1
[16]; KET:10-ZOL combination
  SICc: 32 µg/mL
[16]
  SIC80: 64 µg/mL
[17]; KET:10-ZOL combination
  SICc: 16 µg/mL
[17]
  SIC80: 32 µg/mL
[18]; KET:10-ZOL combination
  SICc: 32 µg/mL
[18]
  SIC80: 256 µg/mL
